Test results as given in patent US7829578B1, “Aromatic ketones and uses thereof” (Oregon Health & Science University, priority 2005, dated 2010).
Where two headings read alike, the source gives them in different places. Blank lines part the entries; values can stand above or below the molecule they belong to.

Key:
[1] = test system: multi-drug resistant strains of Plasmodium falciparum (W2, Dd2, 7G8 and Tm93C1088); test: In vitro antimalarial activity against multi-drug resistant strains; type: cell-based; details: for IC50 values, stated in words: against multidrug resistant Plasmodium falciparum parasites; for IC50: Plasmodium falciparum
Method: (§1) Four different laboratory strains of P. falciparum were cultured in human erythrocytes by standard methods under a low oxygen atmosphere (5% O2, 5% CO2, 90% N2) in an environmental chamber. The culture medium was RPMI 1640, supplemented with 25 mM Hepes buffer, 25 mg/liter gentamicin sulfate, 45 mg/liter hypoxanthine, 10 mM glucose, 2 mM glutamine, and 0.5% Albumax II (complete medium). The parasites were maintained in fresh human erythrocytes suspended at a 2% hematocrit in complete medium at 37° C. Stock cultures were sub-passaged every 3 to 4 days by transfer of infected red cells to a flask containing complete medium and uninfected erythrocytes.
(§2) In vitro antimalarial activity of the test compounds was assessed by a fluorescence-based method described previously (Smilkstein et al., 2004, Antimicrobial Agents and Chemotherapy, Vol. 48, pgs. 1803-1806) (reference format?). The studies were set up in triplicate in 96 well plates with two-fold dilutions of each test compound across the plate in a total volume of 100 μl and at a final red blood cell concentration of 2% (v/v). Stock solutions of each drug were prepared by dissolving in DMSO at 10 mM. […] In every case, an additional determination was performed to ensure bracketing of the IC50 value by at least an order of magnitude.
(§3) Automated pipeting and dilution was carried out by a programmable Precision 2000 robotic station (Bio-Tek, Winooski, Vt.). An initial parasitemia of 0.2% was attained by addition of normal uninfected red cells to a stock culture of asynchronous parasite infected red cells (PRBC). The plates were incubated for 72 hrs at 37° C. in an atmosphere of 5% CO2, 5% O2, and 90% N2. After this period, the SyBrGreen I dye-detergent mixture (100 μl) was added and the plates were incubated at room temperature for an hour in the dark and then placed in a 96-well fluorescence plate reader (Gemini-EM, […]) for analysis with excitation and emission wavelength bands centered at 497 and 520 nm, respectively.

[2] = test system: Plasmodium parasitized red blood cells; test: Oxygen consumption (respiration) by parasitized red blood cells (FIG. 3); type: cell-based; details: compared with atovaquone at equimolar concentrations
Description: While not intending to be limited to any mechanism of action, it is contemplated that some of the presently described compounds may act through inhibiting parasite growth through inhibition of the enzyme cytochrome b.

[3] = test system: drug susceptible (D6) strain of Plasmodium falciparum; test: In vitro antimalarial MSF (SyBrGreen I fluorescence) assay, D6 strain; type: cell-based; details: for improvement of antimalarial potency by the QZ group: compared to IC50 of the parent compound without the QZ side chain
Method: as §1, §2, §3

[4] = test system: multi-drug resistant strain (W2) of Plasmodium falciparum; test: In vitro antimalarial activity, W2 strain; type: cell-based; details: read-out: IC50 against multi-drug resistant strain (W2)
Method: as §1
In vitro antimalarial activity of the test compounds was assessed by a fluorescence-based method described previously (Smilkstein et al., 2004, Antimicrobial Agents and Chemotherapy, Vol. 48, pgs. 1803-1806) (reference format?). […]
Automated pipeting and dilution was carried out by a programmable Precision 2000 robotic station (Bio-Tek, Winooski, Vt.). […] After this period, the SyBrGreen I dye-detergent mixture (100 μl) was added and the plates were incubated at room temperature for an hour in the dark and then placed in a 96-well fluorescence plate reader (Gemini-EM, […]) for analysis with excitation and emission wavelength bands centered at 497 and 520 nm, respectively.

[5] = test system: multi-drug resistant (Dd2) strain of Plasmodium falciparum; test: In vitro antimalarial MSF (SyBrGreen I fluorescence) assay, Dd2 strain; type: cell-based; details: Plasmodium falciparum, DD2, Table 3
Method: as §1, §2, §3

[6] = test system: Murine splenic lymphocytes; test: MSLCs-concanavalin A induced proliferation (blastogenesis) cytotoxicity assay, Alamar Blue fluorescence; type: cell-based; details: Mus musculus, Splenic lymphocyte, Table 3, 48-hr MSLCs-concanavalin A induced proliferation
[7] = test system: multidrug resistant Dd2 strain of P. falciparum; test: Isobolar analysis of combination with clopidol in vitro (FIG. 4); type: cell-based, Plasmodium falciparum
Method: Values below the theoretical straight line of addition are considered to be indicative of synergism. This study was performed with the multidrug resistant Dd2 strain of P. falciparum.

[8] = Plasmodium falciparum, D6, read-out: IC50 against drug sensitive (D6) strain

SMILES: O=C1C=C(OCCCCC(F)(C(F)(F)F)C(F)(F)F)C(=O)c2ccccc21 [NAP 005, 2-(5,6,6,6-tetrafluoro-5-trifluoromethyl-hexyloxy)-[1,4]naphthoquinone]
- IC50 values, stated in words [1]: low nanomolar range
- inhibition of oxygen consumption (respiration) [2]: does not inhibit oxygen consumption

SMILES: O=C1C=C(OCCCCC(F)(F)F)C(=O)c2ccccc21 [No. 35, 2-(5,5,5-trifluoropentyloxy)-1,4-naphthoquinone]
- IC50 [3, 8]: ~133 nM
- improvement of antimalarial potency by the QZ group [3]: roughly 50 fold
- IC50 [1]: ~133 nM

SMILES: O=c1c2ccc(O)cc2oc2cc(OCCCCCC(F)(F)F)ccc12 [3-(6,6,6-trifluorohexyloxy)-6-hydroxyxanthone]
- IC50 [3, 8]: ~700 nM
- improvement of antimalarial potency by the QZ group [3]: more than 100 fold
- IC50 [1]: ~700 nM

SMILES: O=c1c2ccc(Cl)cc2[nH]c2cc(OCCCCCC(F)(F)F)ccc12 [No. 21, 3-(6,6,6-trifluorohexyloxy)-6-chloroacridone]
- IC50 [3, 8]: 0.16 nM
- improvement of antimalarial potency by the QZ group [3]: more than 10,000 fold
- IC50 [1]: 0.16 nM

SMILES: COc1ccc2c(=O)c(CCCCCC(F)(F)F)c(C)[nH]c2c1 [2-methyl-3-(6,6,6-trifluorohexyl)-7-methoxy-4(1H)-quinolone]
- inhibition of oxygen consumption (respiration) [2]: inhibiting oxygen consumption by Plasmodium parasitized red blood cells in similar fashion to atovaquone
- interaction with clopidol [7]: acting in synergy with clopidol

Further lines, with some results ahead:

- IC50 values, stated in words [1]: low nanomolar range
SMILES: COc1ccc2c(=O)c(CCCCCC(F)(F)F)c(C)[nH]c2c1 [No. 44, 2-methyl-3-(6,6,6-trifluorohexyl)-7-methoxy-4(1H)-quinolone]
- inhibition of oxygen consumption (respiration) ([2]; listed as 2-methyl-3-(6,6,6-trifluorohexyl)-7-methoxy-4-quinolone): equivalent to atovaquone at equimolar concentrations

- IC50 ([3]; read-out: IC50 against drug sensitive (D6) strain): ~0.2 nM
- IC50 [4]: ~0.2 nM
SMILES: COc1ccc2c(=O)c(CCCCCCCCCCC(F)(F)F)c(C)[nH]c2c1 [No. 45, 2-methyl-3-(11,11,11-trifluoro-undecy1)-7-methoxy-4(1H)-quinolone]
- improvement of antimalarial potency by the QZ group [3]: more than 1,000 fold

- IC50 ([3]; Plasmodium falciparum, D6, Table 3, MSF assay, read-out: D6 IC50): 10.2 nM
- IC50 [5]: 12.8 nM
SMILES: COc1ccc2c(=O)c(CCCCCC(F)(F)F)c(C)[nH]c2c1 [compound 44]
- IC50 [6]: > 25000 nM
